Measurements: paper PMC11817512, “In Slico Screening and In Vitro Identification of Hyperuricemia-Inhibiting Peptides from Trachurus japonicus” (Foods, 2025)
Where a SMILES comes first, the peptide text is derived from it. Where no end group is shown, it is not given here.

Assays:
HK-2 cells [1] = system: HK-2 cells
Description: HK-2 cells were procured from the National Collection of Authenticated Cell Cultures (SCSP-511, Shanghai, China). The cytotoxicity of the peptides was appraised through a CCK-8 assay in line with the methodology of Gan, Cao, Cai, Xiang, Li, and Luan [30]. HK-2 cells were inoculated in 96-well plates (3 × 10^4 cells per well) and cultivated in Dulbecco’s Modified Eagle Medium (DMEM; provided by Life Technologies Corp., New York, NY, USA) supplemented with 10% fetal bovine serum (FBS; from Life Technologies Corp., New York, NY, USA) at 37 °C in an atmosphere containing 5% CO2 for a duration of 24 h. Peptides were introduced into the wells, and, following a 24 h incubation period, 10 μL of CCK-8 reagent was added to each well and incubated for 1 h. The absorbance was gauged at 450 nm using a microplate reader (Spark, Tecan, Austria).

XOD = molecular target: T1, XOD (Bos taurus, UniProt P80457); assay: In vitro XOD inhibitory assay; format: biochemical; conditions: XOD from milk, xanthine substrate, PBS pH 7.4, 37 °C, absorbance 295 nm, mean ± SD, n = 3; as restated in section 3.5.1; read-out: IC50 for XOD (three-decimal values)
T1 construct: Xanthione oxidase (XOD) from milk; purchased Solarbio Co., Ltd. (Beijing, China); host or cells: milk
Text: Xanthione oxidase (XOD) from milk, 1,1-Diphenyl-2-picrylhydrazyl (DPPH), 2,2′-azino-bis(3-ethylbenzothiazoline-6-sulfonic acid) (ABTS), a xanthine oxidase assay kit, and glutathione (GSH) were purchased from Solarbio Co., Ltd. (Beijing, China). Allopurinol was purchased from Aladdin Co. Ltd. (Shanghai, China). UA was purchased from Sigma-Aldrich Co. LLC. (St. Louis, MO, USA). A Cell Counting Kit-8 (CCK-8) was obtained from APExBIO Technology LLC. (Houston, TX, USA). Other chemicals were provided by Sinopharm Chemical Reagent Co., Ltd. (Shanghai, China) and were of analytical grade.
The in vitro XOD inhibitory assay was carried out by adopting the approach of Zhao et al., with minor alterations. Xanthine and XOD were, respectively, dissolved in phosphate-buffered solution (PBS, with a pH value of 7.4) at concentrations of 1.5 mM and 0.1 U/mL. Peptides of different concentrations (10, 20, 40, 80, and 160 mM) were dissolved in the PBS. A total of 120 μL of the sample solution, 150 μL of PBS, and 100 μL of XOD solution were combined and allowed to react thoroughly at 37 °C for 15 min. Subsequently, 120 μL of xanthine solution was added and the reaction was continued for an additional 20 min. Eventually, 150 μL of 1 M HCl was added to halt further enzymatic activity, and the absorbance was determined at 295 nm by means of an ultraviolet spectrophotometer (TU-1810PC, Purkinje, Beijing, China). The XOD inhibition rate was calculated according to Equation (1).XOD inhibition rate (%) = [1 − (A1 − A3)/(A2 − A4)] × 100%(1) where A1 is the absorbance after the mixed reaction of the inhibitor, XOD, and xanthine; A2 is the absorbance after the reaction of xanthine and XOD without adding the inhibitor; A3 is the absorbance of the sample and xanthine without adding XOD; and A4 is the absorbance of the xanthine solution without adding XOD and the inhibitor. […]

GLUT9 = GLUT9 urate transport / protein expression at the cellular level (Western blot); format: cell-based; conditions: HK-2 cells
Text: (§1) The protein expressions of URAT1 and GLUT9 within cells were detected by means of Western blot, in accordance with the method of Mao, Jiang, and Mao [32]. The primary antibodies were as follows: URAT1 (1:1000; Cat#14937-1AP; Proteintech, Wuhan, China), GLUT9 (1:1000; Cat#ab223470; Abcam, Shanghai, China), and β-actin (1:5000; Cat#ab6276; Abcam). The secondary antibodies were as follows: Goat Anti-Mouse IgG H&L (HRP) (Cat#ab205719; Abcam) and Goat Anti-Rabbit IgG H&L (HRP) (Cat#ab6721; Abcam). The protein levels were quantitatively gauged using ImageJ software (1.8.0.112).

HK-2 cells [2] = assay: Uric acid (UA) level in hyperuricemia HK-2 cell model; format: cell-based; conditions: 24 h, then 2.5 mM adenosine 30 h and XOD 12 h, n = 3
Description: The cell modeling process was carried out by following the method of Mao et al., with certain modifications. HK-2 cells were cultured in DMEM supplemented with 10% FBS at 37 °C under a 5% CO2 environment for 24 h. […] The control group and the model group were also cultured in the medium for the same period of time. Subsequently, the experimental group, the positive group, and the model group were incubated with 2.5 mM adenosine for 30 h and then further incubated with XOD (at a concentration of 0.005 U/mg) for 12 h. The content and concentration of UA in the cell supernatant were measured using a XOD assay kit.

URAT1 = URAT1 urate transport / protein expression at the cellular level (Western blot); format: cell-based; conditions: HK-2 cells
Text: as §1

T1 sequence (P80457 whole entry): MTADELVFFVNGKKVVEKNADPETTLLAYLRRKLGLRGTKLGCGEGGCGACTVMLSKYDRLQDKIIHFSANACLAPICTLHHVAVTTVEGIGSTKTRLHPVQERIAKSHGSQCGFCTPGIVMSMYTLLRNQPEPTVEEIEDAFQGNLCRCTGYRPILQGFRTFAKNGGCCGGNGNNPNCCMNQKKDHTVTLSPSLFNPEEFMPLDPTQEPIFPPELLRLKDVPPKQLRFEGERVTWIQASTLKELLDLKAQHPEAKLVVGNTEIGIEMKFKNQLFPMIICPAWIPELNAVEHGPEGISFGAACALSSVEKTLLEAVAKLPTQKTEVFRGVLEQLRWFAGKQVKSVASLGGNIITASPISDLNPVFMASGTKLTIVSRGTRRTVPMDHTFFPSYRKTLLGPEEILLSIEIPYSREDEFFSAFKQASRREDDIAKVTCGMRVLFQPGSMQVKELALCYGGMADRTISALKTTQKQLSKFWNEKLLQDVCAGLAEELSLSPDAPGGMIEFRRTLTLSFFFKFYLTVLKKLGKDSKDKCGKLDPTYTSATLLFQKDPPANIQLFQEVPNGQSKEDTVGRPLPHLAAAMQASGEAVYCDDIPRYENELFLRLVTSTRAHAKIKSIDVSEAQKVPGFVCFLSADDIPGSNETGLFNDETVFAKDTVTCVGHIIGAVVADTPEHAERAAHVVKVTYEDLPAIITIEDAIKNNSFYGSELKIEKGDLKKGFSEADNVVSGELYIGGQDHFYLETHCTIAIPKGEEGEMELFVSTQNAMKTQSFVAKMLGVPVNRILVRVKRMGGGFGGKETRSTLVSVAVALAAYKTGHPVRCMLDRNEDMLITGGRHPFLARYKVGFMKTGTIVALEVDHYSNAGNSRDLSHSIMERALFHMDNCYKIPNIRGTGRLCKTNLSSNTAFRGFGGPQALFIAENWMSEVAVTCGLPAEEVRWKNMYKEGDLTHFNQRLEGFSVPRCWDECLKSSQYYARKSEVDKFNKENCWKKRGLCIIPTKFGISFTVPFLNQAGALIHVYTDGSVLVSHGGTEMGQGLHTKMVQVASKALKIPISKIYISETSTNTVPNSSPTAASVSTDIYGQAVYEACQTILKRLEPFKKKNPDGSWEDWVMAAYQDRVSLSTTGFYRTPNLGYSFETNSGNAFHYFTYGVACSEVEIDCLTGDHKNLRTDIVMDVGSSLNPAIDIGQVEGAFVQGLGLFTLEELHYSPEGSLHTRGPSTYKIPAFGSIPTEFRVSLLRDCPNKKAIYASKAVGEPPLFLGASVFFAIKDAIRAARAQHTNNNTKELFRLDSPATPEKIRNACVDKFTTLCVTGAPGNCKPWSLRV

Compound | cell viability of HK-2 at higher doses (HK-2 cells [1]) | IC50 (XOD) | reduction of urate transport by GLUT9 in cells (GLUT9) | reduction of UA levels in HK-2 cells, peptides (HK-2 cells [2]; peptide 4 mM (section 3.4)) | reduction of urate transport by URAT1 in cells (URAT1) | reduction of UA levels in HK-2 cells, allopurinol (HK-2 cells [2]; 0.1 mM allopurinol)
C[C@H](N)C(=O)NCC(=O)N[C@@H](Cc1ccccc1)C(=O)O [AGF] (H-Ala-Gly-Phe-OH) | slight reductions in cell viability | 48.6 ± 9.95 mM |  |  |  | 
N[C@@H](CC(=O)O)C(=O)N[C@@H](Cc1ccccc1)C(=O)O [DF] (H-Asp-Phe-OH; N-terminus and C-terminus assumed) | slight reductions in cell viability |  | can effectively diminish the transport of urate by GLUT9 within cells | 45.57% | can curtail the transport of urate by URAT1 in cells | 
NC(=O)CC[C@H](N)C(=O)N1CCC[C@H]1C(=O)N[C@@H](CO)C(=O)N[C@@H](Cc1ccccc1)C(=O)O [QPSF] (H-QPSF-OH) | slight reductions in cell viability | 38.4 ± 7.25 mM |  |  |  | 
Oc1ncnc2[nH]ncc12 [allopurinol, reference compound] |  |  |  |  |  | 52.25%
AGDDAPR [AGDDAPR] | slight reductions in cell viability | 66 ± 10.9 mM |  |  |  | 
